From article PMC7932537, “Quantitative profiling of protease specificity” (PLoS Computational Biology, 2021)

Experiments:
MMP-2 = experiment: N-terminomic (TMT) analysis of MMP-treated HEK293 secretome: isotopic enrichment of novel N-termini; type: biochemical, human; conditions: for isotopic enrichment (log2(ratio)): MMP2 cleavages in HEK293 cell proteins, determined by LC-MS/MS, novel N-termini, sections log2(ratio) >3σ, 2σ-3σ, 1σ-2σ, RP above 4.5
Procedure: (§1) This was done to achieve a reasonable compromise between the false positive and false negative rates based on the statistical model developed by the authors. […] (See Methods for details).
(§2) HEK293 cells were seeded in 150-mm tissue culture dishes (Corning) and grown to confluence. The confluent cultures were washed with PBS several times to remove serum proteins and kept in serum-free DMEM supplemented with 1 μM GM6001 for 72 hours at 37 C, 5% CO2. The conditioned media was centrifuged at 10,000 x g for 30 minutes at 4 C and concentrated ~100-fold using Centricon Plus-70 (AMD Millipore) 3-kDa m.w. cut-off ultrafilter, and the buffer was exchanged to 50 mM HEPES pH 7.0 containing 150 mM NaCl and 10 mM CaCl2 (Reaction Buffer) using a PD-10 desalting column (GE Healthcare). Aliquots containing 240 μg total protein were incubated at 37 C in the presence of 750 nM MMP2 or 9 or the Reaction Buffer alone for 2 hours. Each reaction was carried out in duplicate. The reactions were stopped by addition of 20 mM EDTA and subjected to denaturation/reduction (4M Urea and 10 mM TCEP, 1 h, 22°C) and alkylation (20 mM iodoacetamide, 30 min, 22°C, in dark). […] The TMT-labeled samples were pooled together, and subjected to TCA precipitation (20% TCA, 16 h, 4°C). Each pellet was washed with -20°C acetone, recovered in 50 mM Tris-HCl pH 8.0, and then digested with trypsin/Lys-C (Promega) for 16 h at 37°C. Digestions were stopped with 0.2% TFA and centrifuged to remove insoluble material. The supernatants were then desalted using Sep-Pak C18 cartridge (50 mg), and then lyophilized.
(§3) Dried pooled sample was reconstituted in 20 mM ammonium formate pH ~10 and fractionated using a Waters Acquity BEH C18 column (2.1x 15 cm, 1.7 μm pore size) mounted on an M-Class Ultra Performance Liquid Chromatography (UPLC) system (Waters). […] A total of 32 fractions were collected and pooled in a non-contiguous manner into 16 total fractions. Pooled fractions were dried to completeness in a SpeedVac concentrator prior to mass spectrometry analysis.
(§4) Dried peptide fractions were reconstituted with 2% ACN-0.1% FA and analyzed by LC-MS/MS using a Proxeon EASY nanoLC system (Thermo Fisher Scientific) coupled to a Q-Exactive Plus mass spectrometer (Thermo Fisher Scientific). […] The mass spectrometer was operated in positive data-dependent acquisition mode. MS1 spectra were measured with a resolution of 70,000 (AGC target: 1e6; mass range: 350–1700 m/z).
(§5) The false discovery rate (FDR) filter for spectrum and protein identification was set to 1%. Carbamidomethylation of cysteines was searched as a fixed modification, while oxidation of methionines and N-terminal acetylation were searched as variable modifications. Enzyme was set to trypsin in a semispecific mode and a maximum of two missed cleavages was allowed for searching. To obtain quantification of the TMT-labeled N-termini, two independent searches were performed–one with TMT10plex MS2 N-terminal reporter quantification and the other for quantification of N-terminal and lysine sidechain.

MMP-9 = experiment: as above; type: biochemical, human; conditions: for isotopic enrichment (log2(ratio)) (acc.to MMP9): HEK293 proteins; for isotopic enrichment (log2(ratio)): MMP9 cleavages in HEK293 cell proteins, determined by LC-MS/MS, log2(ratio) range (>3σ, 2σ-3σ, 1σ-2σ)
Procedure: as §1, §2, §3, §4, §5

[1] = MS detected cleavage sequence, HEK293 proteins, unique part of MMP2 selectome
[2] = MS detected cleavage sequence, unique part of MMP2 selectome
[3] = MMP2 cleaved HEK293 proteins, common set of MMP2-9 selectome, LC-MS/MS
[4] = MS detected cleavage sequence, HEK293 proteins, common MMP2-9 selectome
[5] = MMP9, common set of MMP2-9 selectome, LC-MS/MS
[6] = MS detected cleavage sequence, common MMP2-9 selectome

Substance | isotopic enrichment (log2(ratio)) (acc.to MMP2) (MMP-2; [1]) | isotopic enrichment (log2(ratio)) (acc.to MMP9) (MMP-9; [2]) | isotopic enrichment (log2(ratio)) (acc.to MMP2) (MMP-2; [3]) | isotopic enrichment (log2(ratio)) (acc.to MMP2) (MMP-2; [4]) | isotopic enrichment (log2(ratio)) (acc.to MMP9) (MMP-9; [5]) | isotopic enrichment (log2(ratio)) (MMP-9) | isotopic enrichment (log2(ratio)) (acc.to MMP9) (MMP-9; [6]) | isotopic enrichment (log2(ratio)) (MMP-2)
DMIDN-LLSPDL | 1.245 log2(ratio) | 1.029 log2(ratio) |  |  |  |  |  | 
EAPRP-YSKQVS |  |  | 1.239 | 1.239 log2(ratio) | 1.531 | 1.531 | 1.531 log2(ratio) | 
EEPLN-VGSVAA |  |  | 2.637 | 2.637 log2(ratio) | 3.642 | 3.642 | 3.642 log2(ratio) | 
EGPYS-ISVLYG |  |  | 1.176 |  | 0.9411 |  |  | 1.176 log2(ratio)
EHPVL-LTEAPL |  |  |  | 1.599 log2(ratio) |  | 3.462 | 3.462 log2(ratio) | 
ETAIN-ITTYPD |  |  | 1.84 | 1.84 log2(ratio) | 2.536 | 2.536 | 2.536 log2(ratio) | 
FHPEQ-LITGKE |  |  | 2.036 | 2.036 log2(ratio) | 2.628 | 2.628 | 2.628 log2(ratio) | 
FNPLS-LEELGS |  |  |  | 0.84 log2(ratio) |  | 1.82 | 1.82 log2(ratio) | 
FSLFG-LGGEPG |  |  | 1.417 | 1.417 log2(ratio) | 2.104 | 2.104 | 2.104 log2(ratio) | 
FSVSS-LAEGSV |  |  | 1.257 |  | 1.22 |  |  | 1.257 log2(ratio)
GEVQA-MLGQST |  |  |  | 0.5656 log2(ratio) |  | 1.4957 | 1.4957 log2(ratio) | 
GFGRG-LSDKKS |  |  | 1.9486 | 1.9486 log2(ratio) | 2.021 | 2.021 | 2.021 log2(ratio) | 
GFLAW-LYNESP |  |  | 2.43 | 2.43 log2(ratio) | 1.774 | 1.774 | 1.774 log2(ratio) | 
GGGSA-LAGGAG | 3.0018 log2(ratio) | 2.488 log2(ratio) |  |  |  |  |  | 
GLPRE-LAEAVA |  |  |  | 0.7485 log2(ratio) |  | 2.272 | 2.272 log2(ratio) | 
GMPGE-ISEHEG |  |  | 2.198 | 2.198 log2(ratio) | 2.131 | 2.131 | 2.131 log2(ratio) | 
GRSAP-LAAGCP | 3.5097 log2(ratio) | 3.246 log2(ratio) |  |  |  |  |  | 
GRTLG-LYGKDQ |  |  | 2.467 | 2.467 log2(ratio) | 3.7845 | 3.7845 | 3.7845 log2(ratio) | 
GSPDA-LQNPCY |  |  |  | 0.926 log2(ratio) |  | 3.536 | 3.536 log2(ratio) | 

Substance | isotopic enrichment (log2(ratio)) (acc.to MMP2) (MMP-2; [1]) | isotopic enrichment (log2(ratio)) (acc.to MMP9) (MMP-9; [2]) | isotopic enrichment (log2(ratio)) (acc.to MMP2) (MMP-2; [3]) | isotopic enrichment (log2(ratio)) (acc.to MMP2) (MMP-2; [4]) | isotopic enrichment (log2(ratio)) (acc.to MMP9) (MMP-9; [5]) | isotopic enrichment (log2(ratio)) (MMP-9) | isotopic enrichment (log2(ratio)) (acc.to MMP9) (MMP-9; [6]) | isotopic enrichment (log2(ratio)) (MMP-2)
GYIGT-YCGQPV | 2.548 log2(ratio) | 2.478 log2(ratio) |  |  |  |  |  | 
HLNRG-FHQEVF | 1.531 log2(ratio) | 1.782 log2(ratio) |  |  |  |  |  | 
HLVRN-IQLEQP |  |  | 3.263 | 3.263 log2(ratio) | 3.981 | 3.981 | 3.981 log2(ratio) | 
IFLRE-LISNAS |  |  | 1.176 | 1.176 log2(ratio) | 1.628 | 1.628 | 1.628 log2(ratio) | 
ISPGM-IKDCGA |  |  | 1.183 | 1.183 log2(ratio) | 2.036 | 2.036 | 2.036 log2(ratio) | 
KRIAN-LQTDLS |  |  | 1.918 | 1.918 log2(ratio) | 1.791 | 1.791 | 1.791 log2(ratio) | 
KYIGN-MHGNEA |  |  | 1.124 |  | 1.07 |  |  | 1.124 log2(ratio)
LDVGG-LQETDK |  |  | 3.076 | 3.076 log2(ratio) | 1.718 | 1.718 | 1.718 log2(ratio) | 
LFIGG-LSFETT | 2.3505 log2(ratio) | 1.4957 log2(ratio) |  |  |  |  |  | 
LPAMP-MQGGAQ |  |  | 3.329 | 3.329 log2(ratio) | 3.876 | 3.876 | 3.876 log2(ratio) | 
MEPVA-HFGLGK |  |  |  | 0.3448 log2(ratio) |  | 1.731 | 1.731 log2(ratio) | 
MPMF-IVNTNV |  |  |  | 0.8319 log2(ratio) |  | 1.66 | 1.66 log2(ratio) | 
MSPQL-LYDAAP |  |  |  | 0.5656 log2(ratio) |  | 1.465 | 1.465 log2(ratio) | 
MVPRA-VYLPNC |  |  | 1.989 | 1.989 log2(ratio) | 2.491 | 2.491 | 2.491 log2(ratio) | 
NFIQS-IISTVE |  | 1.111 log2(ratio) |  |  |  |  |  | 0.903 log2(ratio)
NFLSW-LYNDSP |  |  | 1.971 | 1.971 log2(ratio) | 1.57 | 1.57 | 1.57 log2(ratio) | 
NFWGA-LSADGY | 1.683 log2(ratio) | 0.9855 log2(ratio) |  |  |  |  |  | 
PALAY-LASAPP | 1.345 log2(ratio) | 0.4436 log2(ratio) |  |  |  |  |  | 
PEPES-WNAAQH | 1.66 log2(ratio) | 1.956 log2(ratio) |  |  |  |  |  | 
